This is an account of results in PubChem BioAssay (NCI).

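Cells were grown in 96-well plates and exposed to each compound for 48 hours at five concentrations; endpoints were interpolated linearly between bracketing concentrations, or set to the highest concentration if not reached. TGI: total growth inhibition.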

Test systems include MCF7 breast; UO-31 renal; HOP-62 NSCLC; DU-145 prostate; EKVX NSCLC; SK-MEL-2 melanoma; HL-60(TB) leukemia; ACHN renal; NCI-H226 lung; SF-268 CNS; A549 NSCLC; SR leukemia; NCI-H522 lung; HOP-92 NSCLC; SF-539 CNS.
Holding throughout (assay): NCI-60 cell line screen, 48 h

For the molecule `O=C(NN=C1CCCCC1)NN=C1CCCCC1`, the TGI with MCF7 breast, with UO-31 renal, with HOP-62 NSCLC and with DU-145 prostate was greater than 100 µM in each case.

As for `O=S(=O)(/N=C(\NO)Nc1ccc(Cl)cc1)c1ccc(-c2ccccn2)s1`, the TGI in the assay with EKVX NSCLC was 98.8 µM; with SK-MEL-2 melanoma, greater than 100 µM; in the assay on HL-60(TB) leukemia, greater than 100 µM; in the assay with ACHN renal, greater than 100 µM; in the assay with NCI-H226 lung, greater than 100 µM; in the assay with SF-268 CNS, greater than 100 µM. Besides, the TGI in the assay with A549 NSCLC is greater than 100 µM; with UO-31 renal, greater than 100 µM; in the assay with SR leukemia, greater than 100 µM; in the assay with HOP-62 NSCLC, greater than 100 µM; in the assay with NCI-H522 lung, 31.8 µM; with HOP-92 NSCLC, greater than 100 µM. The TGI in the assay on DU-145 prostate and in the assay on SF-539 CNS was greater than 100 µM each time.
